Test results taken from ChEMBL document CHEMBL1201862, “PubChem BioAssay data set” (2004).
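Dose response: 5 concentrations. Exposure: 48 h. Format: 96-well plates. Endpoint: linear interpolation; highest concentration if not reached. Here, GI50 denotes the concentration required for 50% inhibition of growth.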 Calls of active or inactive are those of the source. Cut-off read from the data, not from the text of the source: active = GI50 up to about 1.1 µM and inactive = higher.

What was measured:
Test in all cases: NCI anticancer screen, dose series, 48 h
[1] = tested on: OVCAR-5
[2] = tested on: NCI-H23
[3] = tested on: HOP-18
[4] = tested on: SF-539
[5] = tested on: SR
[6] = tested on: HCT-116
[7] = tested on: M19-MEL
[8] = tested on: LOX IMVI
[9] = tested on: DLD-1
[10] = tested on: OVCAR-3
[11] = tested on: HL-60
[12] = tested on: K562
[13] = tested on: OVCAR-8
[14] = tested on: SK-OV-3
[15] = tested on: SW-620
[16] = tested on: XF498
[17] = tested on: HOP-92
[18] = tested on: SK-MEL-2
[19] = tested on: U-251
[20] = tested on: SF-295
[21] = tested on: OVCAR-4
[22] = tested on: CCRF-CEM
[23] = tested on: RXF 393
[24] = tested on: UACC-257
[25] = tested on: Malme-3M
[26] = tested on: KM12
[27] = tested on: CAKI-1
[28] = tested on: TK-10
[29] = tested on: UACC-62
[30] = tested on: ACHN
[31] = tested on: SK-MEL-5
[32] = tested on: SK-MEL-28
[33] = tested on: 786-0
[34] = tested on: HOP-62
[35] = tested on: HCT-15
[36] = tested on: A549
[37] = tested on: MOLT-4
[38] = tested on: DMS-273
[39] = tested on: LXFL 529
[40] = tested on: HT-29
[41] = tested on: NCI-H460
[42] = tested on: SNB-19
[43] = tested on: M14
[44] = tested on: EKVX
[45] = tested on: DMS-114
[46] = tested on: KM-20L2
[47] = tested on: SF-268
[48] = tested on: SN12C
[49] = tested on: NCI-H226
[50] = tested on: UO-31
[51] = tested on: SNB-78
[52] = tested on: IGROV-1
[53] = tested on: COLO 205
[54] = tested on: SNB-75
[55] = tested on: HCC 2998
[56] = tested on: A498
[57] = tested on: NCI-H522
[58] = tested on: RPMI-8226

Measured: GI50

Cc1nn2c(nc1=O)sc1ccc3ccccc3c12
> 100 µM: [35]
inactive: [1] > 100 µM | [2] > 100 µM | [3] > 100 µM | [4] > 100 µM | [5] > 100 µM | [6] > 100 µM | [7] > 100 µM | [8] > 100 µM | [9] > 100 µM | [10] > 100 µM | [11] > 100 µM | [12] > 100 µM | [13] > 100 µM | [14] > 100 µM | [15] > 100 µM | [16] > 100 µM | [17] > 100 µM | [18] > 100 µM | [19] > 100 µM | [20] > 100 µM | [21] > 100 µM | [22] > 100 µM | [23] > 100 µM | [24] > 100 µM | [25] > 100 µM | [26] > 100 µM | [27] > 100 µM | [28] > 100 µM | [29] > 100 µM | [30] > 100 µM | [31] > 100 µM | [32] > 100 µM | [33] > 100 µM | [34] > 100 µM | [36] > 100 µM | [37] > 100 µM | [38] > 100 µM | [39] > 100 µM | [40] > 100 µM | [41] > 100 µM | [42] > 100 µM | [43] > 100 µM | [44] > 100 µM | [45] > 100 µM | [46] > 100 µM | [47] > 100 µM | [48] > 100 µM | [49] > 100 µM | [50] > 100 µM | [51] > 100 µM | [52] > 100 µM | [53] > 100 µM | [54] > 100 µM | [55] > 100 µM

c1ccc2c3c([nH]c2c1)C1(CCCCC1)c1c([nH]c2ccccc12)C31CCCCC1
> 100 µM: [35]
inactive: [1] > 100 µM | [2] 31 µM | [3] 20.6 µM | [5] 22.1 µM | [6] 15.7 µM | [7] 46 µM | [8] 34.4 µM | [56] 24.2 µM | [9] 96.2 µM | [10] > 100 µM | [11] > 100 µM | [12] 35.6 µM | [13] 17.8 µM | [14] 18.2 µM | [15] > 100 µM | [16] > 100 µM | [17] 20.4 µM | [18] 18.8 µM | [19] 30.2 µM | [20] 24.7 µM | [21] 10.6 µM | [22] 79.8 µM | [23] 25.4 µM | [24] 50.4 µM | [25] 23.1 µM | [26] > 100 µM | [27] 38.6 µM | [28] 30.9 µM | [29] 23.9 µM | [30] 17.5 µM | [31] 26.2 µM | [32] 37.1 µM | [33] 15.1 µM | [34] 19.5 µM | [57] 30 µM | [36] 39.3 µM | [37] 47.5 µM | [38] 22.3 µM | [39] 40.8 µM | [40] > 100 µM | [41] 34.7 µM | [42] 54.5 µM | [58] 56.8 µM | [43] 30 µM | [44] 26.2 µM | [45] 31.3 µM | [46] 36.1 µM | [47] 23.6 µM | [48] 22.9 µM | [49] 27.5 µM | [50] 29 µM | [51] 18.8 µM | [52] 31.3 µM | [53] 37.9 µM | [54] 15.9 µM | [55] 32.3 µM
